{"source": "patent US20240398824A1", "about": "“Inhibition Of Rip Kinases For Treating Neurodegenerative Disorders” (The Johns Hopkins University, priority 2018, published 2024)", "key": {"primary cortical neurons": {"test_system": "primary cortical neurons", "test": "Neuronal toxicity of astrocyte conditioned medium (AlamarBlue and LDH assays)", "format": "cell-based, mouse", "conditions": "cortical neurons 24 h with ACM, in words", "description": "Primary neuron, microglia and astrocyte cell cultures, and α-synuclein PFE's treatment: NOD2 or RIPK2 knockout mice was obtained from Jackson Laboratories (Bar Harbor, ME, USA). Primary cortical neurons were prepared from embryonic day 15.5 pups and cultured in Neurobasal medium (Gibco) supplemented with B-27, 0.5 mM L-glutamine, penicillin and streptomycin (Invitrogen, Grand Island, NY, USA) on tissue-culture plates coated with poly-L-lysine. The neurons were maintained by changing the medium every 3-4 days. Primary microglial and astrocyte cultures were performed as described previously (PMID: 26157004). Whole brains from mouse pups at postnatal day 1 (P1) were obtained. […] The total protein concentration was determined using Pierce BCA protein assay kit (Thermo Scientific), and 15 or 50 μg ml^-1 of total protein was added to mouse primary neurons for the neuronal cell death assay. […] Cell viability was determined by two methods: The AlamarBlue (Invitrogen) and LDH assay (Sigma). Cell death was assessed through AlamarBlue assay, according to the manufacturer's protocol. LDH activity in culture medium, representing relative cell viability and membrane integrity, was measured using the LDH assay kit spectrophotometrically, following the manufacturer's instructions. […]"}, "[1]": {"test_system": "α-synuclein PFFs-induced PD mice", "test": "α-synuclein PFFs-induced PD mouse model, IHC of ventral midbrain / SN", "format": "in vivo", "description": "Study rationale and objectives: The purpose of this study was to investigate the anti-PD efficacy of Gefitinib, RIPK2 inhibitor, in the α-synuclein PFF model PD. To this end, α-synuclein PFF were injected into the striatum of NOD2 KO or RIPK2 KO. α-synuclein PFFs-induced PD mice were orally treated with Gefitinib (Gef) (30 mg/kg, once daily) after 1 month striatal α-synuclein PFF injection for 5 months and tissues were analyzed.\nMouse strain for stereotaxic α-synuclein PFFs injection: NOD2 or RIPK2 KO mice was obtained from the Jackson Laboratories (Bar Harbor, ME). All housing, breeding, and procedures were performed according to the NIH Guide for the Care and Use of Experimental Animals and approved by the Johns Hopkins University Animal Care and Use Committee.\nα-synuclein protein purification and PFF preparation: Recombinant mouse α-synuclein proteins were purified as previously described with an IPTG-independent inducible pRK172 vector system. Endotoxin was depleted by ToxinEraser endotoxin removal kit (Genscript, NJ, USA). α-synuclein PFFs (5 mg ml^−1) was prepared in PBS while stirring with a magnetic stirrer (1,000 rpm at 37° C.). After a week of incubation of the α-synuclein protein, aggregates were diluted to 0.1 mg ml^−1 with PBS and sonicated for 30 s (0.5 s pulse on/off) at 10% amplitude (Branson Digital sonifier, Danbury, CT, USA). α-synuclein PFFs was validated using atomic force microscopy and transmission electron microscopy, and the ability to induce phospho-serine 129 α-synuclein (p-α-synSer129) was confirmed using immunostaining. α-synuclein PFFs was stored at −80° C. until use.\nStereotaxic α-synuclein PFFs injection and Immunohistochemistry (IHC): For stereotaxic injection of α-synuclein PFFs, 3 months old NOD2 KO or RIPK2 KO male and female mice were anesthetized with xylazene and ketamine. An injection cannula (26.5 gauge) was applied stereotaxically into the striatum (STR) (mediolateral, 2.0 mm from bregma; anteroposterior, 0.2 mm; dorsoventral, 2.6 mm) unilaterally into the right hemisphere. The infusion of 2 μL α-synuclein PFFs ([…] in PBS) or the same volume of PBS was performed at a rate of 0.2 μL per min. After the final dose, the injection cannula was maintained in the STR for additional 5 min for a complete absorption of the α-synuclein PFFs or PBS then slowly removed from the mouse brain. The head skin was closed by suturing and wound healing and recovery were monitored following surgery. For IHC analysis, animals were perfused and fixed intracardially with ice-cold PBS followed by 4% paraformaldehyde at 3 months after striatal α-synuclein PFFs injections. The brain was removed and processed for immunohistochemistry. IHC for pS129-α-synuclein immunoreactivity was performed at 3 months after the unilateral striatal α-synuclein PFFs injections. Treatment of Gefitinib was accomplished after one month of unilateral striatal α-synuclein PFFs injection, once daily."}}}
{"smiles": "CC(C)(C)S(=O)(=O)c1ccc2nccc(Nc3n[nH]c4ccc(F)cc34)c2c1", "note": "[GSK583, 6-(tert-butylsulfonyl)-N-(5-fluoro-1H-indazol-3-yl) quinolin-4-amine]", "values": [{"measurement": "neuronal cell death induced by neurotoxic astrocytes", "setting": "primary cortical neurons", "value": "significantly prevented neuronal cell death"}]}
{"smiles": "COc1cc2ncnc(Nc3ccc(F)c(Cl)c3)c2cc1OCCCN1CCOCC1", "note": "[Gefitinib]", "values": [{"measurement": "neuronal cell death induced by neurotoxic astrocytes", "setting": "primary cortical neurons", "value": "significantly prevented neuronal cell death"}, {"measurement": "# of p-αSyn positive signal in the SN", "setting": "[1]; Gefitinib 30 mg/kg oral once daily, PFF-injected mice, Veh + PFFs 32.14 ± 1.93, mean ± SEM, n = 5", "value": "16.49 ± 2.01"}, {"measurement": "# of microglia in the SN", "setting": "[1]; Gefitinib 30 mg/kg oral once daily, PFF-injected mice, Veh + PFFs 1138.72 ± 91.48, mean ± SEM, n = 5", "value": "409.15 ± 94.27"}, {"measurement": "microglia activation in the ventral midbrain", "setting": "[1]; IHC, vs non-treated PD mice, in words", "value": "suppresses microglia activation"}, {"measurement": "α-synuclein PFFs induced pathologies in mice", "setting": "[1]; oral administration, in words", "value": "significantly rescues α-synuclein PFFs induced pathologies"}, {"measurement": "LB pathology (pS129-α-synuclein immunoreactivity)", "setting": "[1]; ventral midbrain, IHC, vs non-treated PD mice, in words", "value": "significantly ameliorates LB pathology"}]}
